From patent US12528825B2, “Compounds and uses thereof” (Foghorn Therapeutics Inc., priority 2020, dated 2026) come the findings set out here.

Data set [1] concerns SYO1 cells. Description: Apoptosis assay (Annexin V-FITC). In kind it is cell-based, human. The following applies: 200 nM or 1 μM, 8 days, compared to DMSO controls. The protocol: (§1) Procedure: SYO1 cells were treated for 8 or 13 days with DMSO, a BRD9 degrader (Compound 1) at 200 nM or 1 μM, or an E3 ligase binder (lenalidomide) at 200 nM. Compounds were refreshed every 5 days. Cell cycle analysis was performed using the Click-iT™ Plus EdU Flow Cytometry Assay (Invitrogen). The apoptosis assay was performed using the Annexin V-FITC Apoptosis Detection Kit (Sigma A9210). Assays were performed according to the manufacturer's protocol.

In data set [2] the test system is synovial sarcoma cell lines (SYO1, HS-SY-II, and ASKA). Kind of data set: Crystal violet growth assay, synovial sarcoma cell lines, day 14. In kind it is cell-based. The note with it: for inhibition of growth of synovial sarcoma cell lines: SYO1, HS-SY-II, ASKA, treated daily, indicated concentrations, day 14, FIG. 7. As for the experimental part:
(§2) Procedure: Cells were seeded into 6-well or 12-well plates and were treated daily with a BRD9 degrader (Compound 1), a bromo-domain BRD9 binder (Compound 2), E3 ligase binder (lenalidomide), DMSO, or staurosporin (positive control for cell killing), at indicated concentrations. The number of cells was optimized for each cell line. Growth media was refreshed every 5 days. By day 14, medium was removed, cells were washed with PBS, and stained using 500 μL of 0.005% (w/v) crystal violet solution in 25% (v/v) methanol for at least 1 hour at room temperature. Subsequently plates were scanned on an Odyssey CLx Imaging system.

Data set [3] has as its system synovial sarcoma cell lines (SYO1, Yamato, HS-SY-II, and ASKA). Kind of data set: Growth of synovial sarcoma cell lines (IncuCyte confluency, crystal violet, colony imaging). The following applies: 1 μM or indicated concentrations, FIGS. 4-6. In kind it is cell-based. The protocol:
(§3) Cells were treated with DMSO or the BRD9 degrader, Compound 1, at indicated concentrations, and proliferation was monitored from day 7 to day 14 by measuring confluency over time using an IncuCyte live cell analysis system (FIG. 4). Growth medium and compounds were refreshed every 3-4 days.
(§4) Cells were seeded into 12-well plates and treated with DMSO, 1 μM BRD9 inhibitor, Compound 2 (also known as BI-7273, see Martin et al, J Med Chem. 59(10):4462-4475 (2016); see structure of compound 2 below), or 1 μM BRD9 degrader, Compound 1.
(§5) The number of cells was optimized for each cell line. Growth medium and compounds were refreshed every 3-5 days. SYO1, Yamato, A549, 293T and HS-SY-II cells were fixed and stained at day 11. ASKA cells were fixed and stained at day 23. Staining was done by incubation with crystal violet solution (0.5 g Crystal Violet, 27 ml 37% Formaldehyde, 100 mL 10×PBS, 10 mL Methanol, 863 dH20 to 1 L) for 30 min followed by 3× washes with water and drying the plates for at least 24 h at room temperature. Subsequently plates were scanned on an Odyssey CLx Imaging system (FIG. 5).
(§6) Cells were seeded into 96-well ultra-low cluster plate (Costar, #7007) in 200 μL complete media and treated at day 2 with DMSO, Staurosporin, or BRD9 degrader, Compound 1, at indicated doses (FIG. 2C). Media and compounds were changed every 5 d and cell colonies were imaged at day 14.

The test system of data set [4] is SYO1 cells. Description: Cell cycle analysis (Click-iT Plus EdU flow cytometry). The following applies: 200 nM or 1 μM, 8 or 13 days, compared to DMSO and lenalidomide. In kind it is cell-based, human. As for the experimental part: as §1
Background: In flow cytometry, cells or beads pass a laser one at a time.

In data set [5] the test system is non-synovial control cancer cell lines (RD, HCT116, and Calu6). Kind of data set: Crystal violet growth assay, non-synovial control cancer cell lines, day 14. In kind it is cell-based. The following applies: treated daily, indicated concentrations, FIG. 8. As for the experimental part: as §2
The subject of data set [6] is non-synovial control cancer cell lines (293T, A549, G401). Description: Growth of non-synovial control cancer cell lines (crystal violet, colony imaging). The format is cell-based. The following applies: 1 μM or indicated doses, FIGS. 4-6. The protocol:
as §3, §4, §5, §6

A further data set deals with T1, BRD9 (Homo sapiens, UniProt Q9H8M2).
T1 construct: Tumors were lysed with 1× RIPA lysis buffer; from tissue; host or cells: synovial sarcoma tumours collected from treated mice
T1 sequence (Q9H8M2 1-597): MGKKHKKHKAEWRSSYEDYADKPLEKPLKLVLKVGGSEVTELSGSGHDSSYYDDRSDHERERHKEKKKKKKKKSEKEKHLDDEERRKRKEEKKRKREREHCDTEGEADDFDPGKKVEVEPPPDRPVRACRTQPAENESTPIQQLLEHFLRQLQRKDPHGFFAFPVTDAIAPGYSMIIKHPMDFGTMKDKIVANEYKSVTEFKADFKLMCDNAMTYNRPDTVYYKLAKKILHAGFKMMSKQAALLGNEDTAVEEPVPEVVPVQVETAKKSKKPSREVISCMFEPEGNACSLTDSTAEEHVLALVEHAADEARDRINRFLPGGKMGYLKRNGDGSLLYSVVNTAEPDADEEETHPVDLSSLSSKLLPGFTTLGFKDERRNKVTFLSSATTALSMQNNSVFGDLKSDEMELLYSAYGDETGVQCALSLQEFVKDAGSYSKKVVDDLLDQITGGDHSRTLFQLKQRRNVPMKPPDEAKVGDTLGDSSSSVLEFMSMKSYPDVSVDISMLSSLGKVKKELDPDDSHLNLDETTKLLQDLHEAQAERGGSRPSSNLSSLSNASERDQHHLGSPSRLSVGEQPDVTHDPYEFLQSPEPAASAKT
Kind of data set: BRD9 western blot in synovial sarcoma tumors in vivo. The following applies: 1 mg/kg, i.p., 4 weeks; tumors collected 8, 72 and 168 hours post last dose; effect up to 168 hours after dose. Also noted: species or system mice. The protocol:
Method: Mice were treated with D1, 1 mg/kg, i.p. for 4 weeks. Mice were then euthanized, and tumors were collected at 8 hours, 72 hours, and 168 hours post last dose. Tumors were lysed with 1× RIPA lysis buffer (Boston BioProducts, BP-115D) with protease and phosphatase protein inhibitor (Roche Applied Science #04906837001 & 05892791001). Equal amounts of lysate (30 μg) were loaded in 4-12% Bis-Tris Midi Protein Gels in 1×MOPS buffer; samples ran at 120 V for 120 minutes. Protein was transferred to membrane with TransBlot at 250 mA for 150 minutes, and then membranes were blocked with Odyssey blocking buffer for 1 hour at room temperature. Membranes were hybridized overnight in cold room with primary antibodies. Images acquired using Li-COR imaging system (Li-COR Biotechnology, Lincoln, Nebraska).
On the technique in general: Immunoblotting shows a protein as a band on a membrane.

Data set [7] in a line: Tolerability (% body weight change) in the SYO-1 xenograft study. In kind it is in vivo. The following applies: 1 mg/kg, i.p., daily, 3 weeks; NOD SCID mice. As for the experimental part: (§7) Method: NOD SCID mice (Beijing Anikeeper Biotech, Beijing) were inoculated subcutaneously on the right flank with the single cell suspension of SYO-1 human biphasic synovial sarcoma tumor cells (5×106) in 100 μL Dulbecco's Modified Eagle Medium (DMEM) with 10% fetal bovine serum (FBS). The mice were randomized into either control group [10% dimethyl sulfoxide (DMSO), 40% polyethylene glycol (PEG400) and 50% water], or treatment group D1 when the mean tumor size reached about 117 mm^3. Mice were dosed daily through intraperitoneal (i.p.) route over the course of 3 weeks. All dose volumes were adjusted by body weights in terms of mg/kg.

Data set [8] has as its system SYO-1 human biphasic synovial sarcoma tumor cells. Kind of data set: SYO-1 synovial sarcoma xenograft tumor growth in NOD SCID mice. In kind it is in vivo. The note with it: 1 mg/kg, i.p., daily, 3 weeks, SYO-1 xenograft. The protocol: as §7

“Also recorded” adds a separate entry of the source.

As for `COc1cc(-c2cn(C)c(=O)c3cnccc23)cc(OC)c1CN(C)CC(=O)NCCOCCOCCNc1cccc2c1C(=O)N(C1CCC(=O)NC1=O)C2=O` (centres unmarked) [Compound 1], the “numbers of early- and late-apoptotic cells” value in the data set with SYO1 cells [1] is “increased numbers of early- and late-apoptotic cells”. The “inhibition of growth of synovial sarcoma cell lines” value in [2] and in data set [3] was “inhibition of the growth of the cells” in each case. The “growth inhibition compared with the other test compounds” value in data set [2] (all synovial cell lines) is on record as “most significant growth inhibition”. In addition, the “numbers of cells in the S-phase of the cell cycle” value in the data set with SYO1 cells [4] is on record as “reduced numbers of cells in the S-phase”. In addition, the “inhibition of growth of non-synovial control cancer cell lines” value was “did not result in inhibition of the growth” in data set [5] and “does not result in inhibition of the growth” in data set [6].
As for `COc1cc(-c2cn(C)c(=O)c3cnccc23)cc(OC)c1CN(C)C` [Compound 2], the “inhibition of growth of synovial sarcoma cell lines” value in data set [2] and in data set [3] was “inhibition of the growth of the cells” throughout. Moreover, the “inhibition of growth of non-synovial control cancer cell lines” value is on record as “did not result in inhibition of the growth” in data set [5] and “does not result in inhibition of the growth” in data set [6].
As for `COc1cc(-c2cn(C)c(=O)c3cc(C(=O)NC4CCN(C5CCN(c6ccc7c(c6)C(=O)N(C6CCC(=O)NC6=O)C7)CC5)CC4(F)F)sc23)cc(OC)c1CN(C)C` (centres unmarked) [Compound D1, 7-[4-[(dimethylamino)methyl]-3,5-dimethoxyphenyl]-N-[1′-[2-(2,6-dioxopiperidin-3-yl)-3-oxo-1H-isoindol-5-yl]-3,3-difluoro-[1,4′-bipiperidin]-4-yl]-5-methyl-4-oxothieno[3,2-c]pyridine-2-carboxamide], on BRD9, the “BRD9 level in tumor (western blot)” value was “complete degradation; also recorded: BRD9 inhibition”. For the same compound, the “tolerability based on % body weight change” value in data set [7] is on record as “well tolerated”. Further, in [8], the tumor growth result is recorded as “tumor growth inhibition”.
